The values below come from PubChem BioAssay (NCI).

Where “and” joins values, the source holds several entries; their conditions need not be identical. Identical values can stand only once.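 Interpolation was linear, between the two tested concentrations surrounding the appropriate level; five concentrations were tested over 48 hours in 96-well plates. GI50 = concentration required for 50% inhibition of growth. The concentration for full growth arrest is given as TGI.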

Among the test systems are A498 renal; CAKI-1 renal; COLO 205 colon; HCT-116 colon; HL-60(TB) leukemia; HOP-92 NSCLC; NCI-H226 lung; OVCAR-5 ovarian; SF-295 CNS; SK-MEL-28 melanoma.
Common to all, as to experiment: growth of human tumour cells (NCI), 48 h

Regarding `CCOC(=O)/C=C(/C(=O)OCC)n1cc(Cl)c(=O)n(CC(=O)OCC)c1=O`, the TGI in the assay with A498 renal was 34.6 µM; in the assay on CAKI-1 renal, 7.64 µM and 5.5 µM; in the assay on COLO 205 colon, 2.81 µM and 2.59 µM; in the assay on HCT-116 colon it was 9.67 µM and 28 µM; in the assay with HL-60(TB) leukemia, 9.97 µM and 37.2 µM; in the assay on HOP-92 NSCLC, 9.3 µM. Besides, the TGI with NCI-H226 lung is > 25 µM and 32.5 µM; in the assay on SF-295 CNS it was above 100 µM; with SK-MEL-28 melanoma it was 10.5 µM and 42.2 µM. In addition, the GI50 was 1.32 µM in the assay with COLO 205 colon; 13.7 µM in the assay with HCT-116 colon; 11.2 µM with HL-60(TB) leukemia; 36.6 µM in the assay on OVCAR-5 ovarian; above 100 µM in the assay on SF-295 CNS; 20.3 µM in the assay with SK-MEL-28 melanoma.

Regarding `CCCCC/C(C=C(C#N)C#N)=C/c1ccccc1`, the GI50 in the assay with A498 renal was 9.72 µM; with CAKI-1 renal, 1.3 µM; in the assay on COLO 205 colon, 4.91 µM; in the assay on HCT-116 colon it was 1.95 µM; in the assay on HL-60(TB) leukemia, 2.39 µM; with HOP-92 NSCLC it was 5.82 µM. Besides, the GI50 in the assay on NCI-H226 lung is 8.11 µM; in the assay on OVCAR-5 ovarian, 4.11 µM; with SF-295 CNS, 2.76 µM; with SK-MEL-28 melanoma, 2.86 µM. The TGI was determined as 23.2 µM in the assay with A498 renal; 21.3 µM in the assay with CAKI-1 renal; 16.3 µM in the assay on COLO 205 colon; 4.46 µM in the assay on HCT-116 colon; 6.32 µM with HL-60(TB) leukemia; 21.8 µM with HOP-92 NSCLC. The TGI with NCI-H226 lung came out at 25.5 µM; in the assay with OVCAR-5 ovarian, 10.7 µM; in the assay on SF-295 CNS it was 14.6 µM; with SK-MEL-28 melanoma it was 8.57 µM.

Take `CC1OC(n2cc(F)c(=O)[nH]c2=O)CCC1O` (stereo not given): the TGI in the assay on A498 renal, in the assay with CAKI-1 renal, in the assay on COLO 205 colon, in the assay on HCT-116 colon, in the assay with HL-60(TB) leukemia and in the assay with HOP-92 NSCLC was above 100 µM throughout. In addition, the TGI in the assay with NCI-H226 lung, with OVCAR-5 ovarian, with SF-295 CNS and with SK-MEL-28 melanoma was above 100 µM each time.

With `N#C/C(=C1C=C/C(=N/O)C(Br)=C/1)c1ccccc1`, the GI50 was 2.57 µM with A498 renal; 0.7 µM with CAKI-1 renal; 6.89 µM in the assay on COLO 205 colon; 0.362 µM in the assay with HCT-116 colon; 2.16 µM in the assay on HL-60(TB) leukemia; 0.385 µM in the assay with HOP-92 NSCLC. Further, the GI50 in the assay on NCI-H226 lung was 3.59 µM; with OVCAR-5 ovarian, 2.6 µM; in the assay on SF-295 CNS, 2.81 µM; in the assay with SK-MEL-28 melanoma it was 10.3 µM. In addition, the TGI in the assay on A498 renal worked out at 16.7 µM; in the assay with CAKI-1 renal it was 12.7 µM; in the assay on COLO 205 colon, 54.7 µM; in the assay on HCT-116 colon, 2.13 µM; in the assay on HL-60(TB) leukemia, 6.31 µM; with HOP-92 NSCLC it was 3.77 µM. Also, the TGI in the assay with NCI-H226 lung was found to be 11.6 µM; in the assay with OVCAR-5 ovarian it was 6.8 µM; with SF-295 CNS, 8.47 µM; in the assay on SK-MEL-28 melanoma, 31.1 µM.

As for `CC1OC(O[C@H]2C[C@@H](O)[C@]3(CO)[C@H]4[C@H](O)C[C@]5(C)[C@@H](C6=CC(=O)OC6)CC[C@]5(O)[C@@H]4CC[C@]3(O)C2)C(O)C(O)C1O` (stereo not given in full), the GI50 in the assay on A498 renal was 20.4 µM; in the assay on CAKI-1 renal, 17.7 µM; with COLO 205 colon, 18.5 µM; in the assay with HCT-116 colon it was 19 µM; in the assay on HL-60(TB) leukemia, 21 µM; in the assay on HOP-92 NSCLC, 24.4 µM. For the same compound, the GI50 in the assay on NCI-H226 lung is 22.7 µM; in the assay on OVCAR-5 ovarian, 35.7 µM; in the assay with SF-295 CNS, 19.3 µM; in the assay on SK-MEL-28 melanoma, 21.7 µM. Moreover, the TGI is 39 µM in the assay on A498 renal; 33.9 µM in the assay with CAKI-1 renal; 33.7 µM in the assay on COLO 205 colon; 33.7 µM in the assay on HCT-116 colon; 41.6 µM in the assay with HL-60(TB) leukemia; 57.6 µM in the assay with HOP-92 NSCLC. Moreover, the TGI in the assay with NCI-H226 lung was 52 µM; in the assay on OVCAR-5 ovarian it was above 100 µM; in the assay on SF-295 CNS, 35.3 µM; with SK-MEL-28 melanoma, 46.3 µM.

As to `O=C1/C(=C/c2ccc(Br)cc2)C=C(c2ccccc2)N1CCc1ccccc1`, the GI50 is 0.652 µM with A498 renal; 1.23 µM in the assay on CAKI-1 renal; 3.26 µM in the assay with COLO 205 colon; 0.394 µM in the assay with HCT-116 colon; 75.1 µM in the assay on HL-60(TB) leukemia; 0.32 µM in the assay with HOP-92 NSCLC. The GI50 in the assay on NCI-H226 lung was 1.11 µM; in the assay on OVCAR-5 ovarian, 4.28 µM; with SF-295 CNS it was 0.332 µM; in the assay on SK-MEL-28 melanoma, 2.75 µM. Further, the TGI in the assay on A498 renal was 5.44 µM; in the assay with CAKI-1 renal it was 7.6 µM; with COLO 205 colon, 27.5 µM; in the assay on HCT-116 colon, 11.7 µM; in the assay with HL-60(TB) leukemia it was above 100 µM; in the assay on HOP-92 NSCLC, 2.63 µM. The TGI in the assay on NCI-H226 lung is 4.57 µM; in the assay with OVCAR-5 ovarian, 40.2 µM; with SF-295 CNS, 1.59 µM; with SK-MEL-28 melanoma, 17 µM.

Take `CC(=O)Nc1ccccc1Sc1ccccc1`: the TGI in the assay on A498 renal, in the assay with CAKI-1 renal, in the assay on COLO 205 colon, with HCT-116 colon, in the assay on HL-60(TB) leukemia and in the assay on HOP-92 NSCLC was above 100 µM in each case. The TGI with NCI-H226 lung, with OVCAR-5 ovarian, in the assay on SF-295 CNS and in the assay with SK-MEL-28 melanoma was above 100 µM throughout.

With `O=C(NCCOCCOCCNc1cccc2c1C(=O)N(C1CCCNC1=O)C2=O)c1cc2c(o1)C(=O)c1ccccc1C2=O` (stereo not given), the GI50 with A498 renal is 1.77 µM; in the assay on CAKI-1 renal, 2.75 µM; in the assay with COLO 205 colon, 2.1 µM; with HCT-116 colon it was 2.06 µM; in the assay on HL-60(TB) leukemia it was 2.38 µM; in the assay on HOP-92 NSCLC it was 3.31 µM. The GI50 in the assay with NCI-H226 lung is 1.78 µM; with OVCAR-5 ovarian, 1.77 µM; in the assay with SF-295 CNS, 1.7 µM; with SK-MEL-28 melanoma it was 2.31 µM. Further, the TGI in the assay on A498 renal was determined as 3.21 µM; with CAKI-1 renal it was 9.3 µM; in the assay with COLO 205 colon, 4.12 µM; with HCT-116 colon it was 5.54 µM; in the assay on HL-60(TB) leukemia it was 6.78 µM; in the assay with HOP-92 NSCLC, 13.6 µM. In addition, the TGI stood at 3.95 µM in the assay on NCI-H226 lung, 3.19 µM in the assay on OVCAR-5 ovarian, 3.13 µM with SF-295 CNS and 4.61 µM in the assay with SK-MEL-28 melanoma.
